This is an account of results in patent US9273364B2 (Kyoto University, priority 2010, dated 2016).

Molecules are shown by their SMILES. Structures can show the parent of a compound that is named as a salt.

The subject of one data set is alternative splicing of a specific gene (GFP/RFP reporter). The experiment in a line: Compound screen with GFP/RFP alternative splicing reporter.
Details: not given
In kind it is cell-based. The source says:
Strategy of a method for testing whether or not a compound to be tested affects an alternative splicing of a specific gene in a mammalian multicelluar organism is shown in FIG. 14.
The reporter proteins used for the method are GFP and FRP.
`C=C1/C(=C\C=C2/CCC[C@]3(C)[C@@H]([C@H](C)CCCC(C)C)CC[C@@H]23)C[C@@H](O)C[C@@H]1O` (racemic) [Alfacalcidol] registered a Number of cells of 861.

As to `COc1cc2nc(N3CCN(C(=O)c4ccco4)CC3)nc(N)c2cc1OC` [Prazosin HCl], the Number of cells was found to be 2109.

With `CO[C@@]12[C@H](COC(N)=O)C3=C(C(=O)C(C)=C(N)C3=O)N1C[C@@H]1N[C@@H]12` [Mitomycin c], the “GFP/RFP (Ctrl = 1)” value is recorded as 3.767.

Consider `CCC(NC(C)C)C(O)c1ccc(O)c2[nH]c(=O)ccc12` (centres unmarked) [Procaterol hcl], for which the Number of cells was determined as 4151.

`NC1CCN(c2nc3c(cc2F)c(=O)c(C(=O)O)cn3-c2ccc(F)cc2F)C1` (racemic) [Tosufloxacin]: the Number of cells is recorded as 2590.

Take `CCCc1nc2c(C)cc(-c3nc4ccccc4n3C)cc2n1Cc1ccc(-c2ccccc2C(=O)O)cc1` (racemic) [Telmisartan]: the Number of cells worked out at 3042.

As for `C[C@@H](O[C@H]1OCCN(Cc2n[nH]c(=O)[nH]2)[C@H]1c1ccc(F)cc1)c1cc(C(F)(F)F)cc(C(F)(F)F)c1` (racemic) [Aprepitant], the Number of cells is 2165.

The molecule `CC1=C(/C=C/C(C)=C/C=C/C(C)=C/C(=O)O)C(C)(C)CCC1` [Retinoic acid] had a Number of cells of 2697.

The molecule `CNC[C@H](O)c1ccc(O)c(O)c1.O=C(O)C(O)C(O)C(=O)O` [Epinephrine-(+)-tartrate l (−)] came in with a Number of cells of 4057.

Regarding `NC(=O)c1ncn([C@@H]2O[C@H](CO)[C@@H](O)[C@H]2O)n1` (racemic) [Ribavirin], the Number of cells is listed as 3140.

Consider `CC(C)NCC(O)c1ccc(O)c(O)c1.Cl` (racemic) [Isoproterenol HCl (rac)], for which the Number of cells is reported as 3953.

Consider `C[C@@](Cc1ccc(O)c(O)c1)(NN)C(=O)O` [Carbidopa], for which the Number of cells amounted to 3470.

As to `O=NN(CCCl)C(=O)NC1CCCCC1` (racemic) [Lomustine], the Number of cells amounted to 1241.

With `CC(=O)OC[C@H]1O[C@@H]([S-])[C@H](OC(C)=O)[C@@H](OC(C)=O)[C@@H]1OC(C)=O.CCP(CC)CC.[Au+]` [Auranofin], the “GFP/RFP (Ctrl = 1)” value was determined as 4.915.

As for `O=P1(N(CCCl)CCCl)NCCCO1` (centres unmarked) [Cyclophosphamide monohydrate], the “cell count per well (c9; column head not printed in these continuation tables, meaning inferred)” value came to 3065.

`CN(C)CCC(c1ccc(Cl)cc1)c1ccccn1` (racemic) [Chlorpheniramine maleate] yielded a Number of cells of 3724.

The same data set, now with this note: 50 ng/mL.
`CCN(CC)C(=S)SSC(=S)N(CC)CC` (racemic) [Disulfiram] came in with a Number of cells of 31.

`Cc1coc2c1C(=O)C(=O)c1c-2ccc2c1CCCC2(C)C` [Tanshinone iia] returned a Number of cells of 2210.

The molecule `COc1ccc(CC2c3cc(OC)c(OC)cc3CC[N+]2(C)CCC(=O)OCCCCCOC(=O)CC[N+]2(C)CCc3cc(OC)c(OC)cc3C2Cc2ccc(OC)c(OC)c2)cc1OC` (racemic) [Atracurium besylate] gave a Number of cells of 3056.

Turning to `CCCCC[C@H](O)/C=C/[C@H]1[C@H](O)CC(=O)[C@@H]1CCCCCCC(=O)O` [Alprostadil], the Number of cells is listed as 3505.

Turning to `CC(C(=O)O)c1ccc2c(c1)Cc1cccnc1O2` (racemic) [Pranoprofen], the Number of cells is on record as 3050.

For `Nc1ccn([C@@H]2O[C@H](CO)[C@@H](O)C2(F)F)c(=O)n1` (racemic) [Gemcitabine HCl], the Number of cells came to 156.

Molecule `COc1c(C)c2c(c(O)c1C/C=C(\C)CCC(=O)O)C(=O)OC2` [Mycophenolic acid] had a Number of cells of 1367.

As for `CN1CCCN=C1/C=C/c1cccs1` (racemic) [Pyrantel pamoate], the Number of cells worked out at 2985.

Molecule `O=c1[nH]c(=O)n([C@H]2C[C@H](O)[C@@H](CO)O2)cc1I` (racemic) [Idoxuridine] came in with a Number of cells of 1924.

On to `COc1ccc(CCN2CCC(Nc3nc4ccccc4n3Cc3ccc(F)cc3)CC2)cc1` [Astemizole], for which the Number of cells is given as 38.

The molecule `COc1cc2nc(N3CCN(C(=O)C4CCCO4)CC3)nc(N)c2cc1OC` (racemic) [Terazosin HCl] displayed a Number of cells of 3112.

Molecule `C[C@]12C=CC(=O)C=C1CC[C@@H]1[C@@H]2[C@@H](O)C[C@@]2(C)[C@H]1CC[C@]2(O)C(=O)CO` (racemic) [Prednisolone] had a Number of cells of 2900.

With `C[C@@H]1CN(c2c(F)c(N)c3c(=O)c(C(=O)O)cn(C4CC4)c3c2F)C[C@H](C)N1` [Sparfloxacin], the Number of cells turned out to be 3029.

Consider `CC(C)NCC(O)COc1cccc2ccccc12` (centres unmarked) [Propranolol], for which the Number of cells was determined as 2641.

Turning to `CN(C)CCOc1ccc(/C(=C(/CCCl)c2ccccc2)c2ccccc2)cc1` (racemic) [Toremifene], the Number of cells amounted to 250.

In the case of `COc1ncnc(NS(=O)(=O)c2ccc(N)cc2)c1OC` (racemic) [Sulfadoxine], the Number of cells is reported as 2876.

`CC(=O)O[C@H]1C(=O)[C@@]2(C)[C@H]([C@H](OC(=O)c3ccccc3)[C@]3(O)C[C@H](OC(=O)[C@H](O)[C@@H](NC(=O)c4ccccc4)c4ccccc4)C(C)=C1C3(C)C)[C@]1(OC(C)=O)CO[C@@H]1C[C@@H]2O` [Taxol] displayed a Number of cells of 719.

Molecule `COC(=O)Nc1nc2ccc(Sc3ccccc3)cc2[nH]1` (racemic) [Fenbendazole] returned a Number of cells of 278.

`Cc1oncc1C(=O)Nc1ccc(C(F)(F)F)cc1` (racemic) [Leflunomide] had a Number of cells of 1963.

Regarding `c1ccc(-c2ccc(C(c3ccccc3)n3ccnc3)cc2)cc1` (racemic) [Bifonazole], the Number of cells is 921.

For the molecule `O=c1[nH]c(=O)n([C@H]2C[C@H](O)[C@@H](CO)O2)cc1F` (racemic) [Floxuridine], the Number of cells is 142.

Staying with this data set, now noted: cell count after compound at final conc.; Ctrl number of cells 4303-5627.
Take `CO[C@@]12[C@H](COC(N)=O)C3=C(C(=O)C(C)=C(N)C3=O)N1C[C@@H]1N[C@@H]12` [Mitomycin c]: the Number of cells is 319.

`COc1ccnc(C[S+]([O-])c2nc3ccc(OC(F)F)cc3[nH]2)c1OC` (racemic) [Pantoprazole]: the Number of cells is on record as 3112.

In turn, `COC(=O)N/N=C/c1c[n+]([O-])c2ccccc2[n+]1[O-]` (racemic) [Carbadox] had a Number of cells of 2293.

Regarding `CCC[S+]([O-])c1ccc2[nH]c(NC(=O)OC)nc2c1` (racemic) [Ricobendazole], the Number of cells came out at 1381.

For `COc1cc(-c2ccc(=O)[nH]n2)ccc1OC(F)F` [Zardaverine], the Number of cells was found to be 2744.

Take `CC(=O)OC[C@H]1O[C@@H]([S-])[C@H](OC(C)=O)[C@@H](OC(C)=O)[C@@H]1OC(C)=O.CCP(CC)CC.[Au+]` [Auranofin]: the Number of cells came to 1.

In turn, `CC[C@@]1(O)C[C@H](O[C@H]2C[C@H](N(C)C)[C@H](O[C@H]3C[C@H](O)[C@H](O[C@H]4CCC(=O)[C@H](C)O4)[C@H](C)O3)[C@H](C)O2)c2c(cc3c(c2O)C(=O)c2c(O)cccc2C3=O)[C@H]1C(=O)OC` [Aclarubicin] showed a Number of cells of 10.

On to `COc1c(C)c2c(c(O)c1C/C=C(\C)CCC(=O)OCCN1CCOCC1)C(=O)OC2` (racemic) [Mycophenolate mofetil], for which the Number of cells was 500.

`CCCOc1ccc2nc(NC(=O)OC)[nH]c2c1` (racemic) [Oxibendazole] showed a Number of cells of 786.

The molecule `O=C(O)CCCc1ccc(N(CCCl)CCCl)cc1` (racemic) [Chlorambucil] gave a Number of cells of 841.

Turning to `CC[C@@]1(O)C(=O)OCc2c1cc1n(c2=O)Cc2cc3ccccc3nc2-1` [Camptothecin], the Number of cells was found to be 385.

Still in this data set, the particulars now being: reporter ratio relative to control = 1; final conc. per compound (μM, 50 ng/mL).
With `CNC[C@H](O)c1ccc(O)c(O)c1.O=C(O)C(O)C(O)C(=O)O` [Epinephrine-(+)-tartrate l (−)], the “GFP/RFP (Ctrl = 1)” value was found to be 1.528.

As to `CC(C)NCC(O)c1ccc(O)c(O)c1.Cl` (racemic) [Isoproterenol HCl (rac)], the “GFP/RFP (Ctrl = 1)” value turned out to be 1.614.
